Patent US20080267894A1, “Acerola Fruit-Derived Pectin and Its Application” (NICHIREI FOODS INC., priority 2005, published 2008)

Assays:
brown guinea pigs = test: Skin-whitening test: suppression of pigmentation after UV irradiation; assay type: in vivo; details: oral, dose of ascorbic acid 300 mg/kg animal weight/day, 42 days; UVB on days 0, 2, 4; observed days 7 to 42
Experimental: The effect of suppressing pigmentation after UV irradiation was examined using brown guinea pigs (SPF). The brown guinea pigs are of an animal species that undergoes pigmentation because of UV irradiation in a manner similar to humans and of a line that has been clearly maintained. Six guinea pigs were used for each group in this test. To promote pigmentation, UV (UVB) irradiation was performed from a distance of 40 cm using five SE lamps (wavelength between 250 nm and 350 nm, […] Corporation) installed in an UV irradiation apparatus (Y-798-II, Orion Electric Co., Ltd.). […] This time was designated the time for UV irradiation in this test. Each irradiation site was a 2 cm×2 cm square area located on either the left or right across the midline of the back of a guinea pig that had been sheared using electric clippers and then shaved using an electric shaver. […] Pigmentation was measured as follows. Before the initial administration (before irradiation) on the day of the initiation of administration and on days 7, 14, 21, 28, 35, and 42 after initial administration, L value (lightness) of irradiated sites were measured using a colorimeter (CR-300, Minolta Co., Ltd.) and then the ΔL value (L value on the day of observation-L value before irradiation) was found. […]

[1] = Anti-oxidation activity (rhodan-iron method) using linoleic acid, suppression of auto-oxidation; assay type: biochemical; details: for Absorbance, auto-oxidation of linoleic acid: specimen 0.02% (W/W)
Experimental: Linoleic acid is unsaturated fatty acid that is contained richly also in human body. The unsaturated fatty acid is characterized by being auto-oxidized when it is allowed to stand, so as to be lipid peroxide. In this experiment, linoleic acid is mixed with a sample, the mixture is allowed to stand at 40° C., and then antioxidative activities are evaluated based on increases in the amounts of lipid oxides purified from linoleic acid. […] The resulting mixture was put into a brown screw cap bottle, so that 10 ml of a reaction solution was prepared. When a specimen was a water-insoluble component, the specimen was dissolved in the above 99.5% ethanol, so that a reaction solution was prepared. When a specimen was a water-soluble component, the specimen was dissolved in the above distilled water, so that a reaction solution was prepared. In addition, in this test method, the term “specimen concentration” indicates a specimen concentration in 2 ml of 99.5% ethanol or 2 ml of distilled water. Therefore, the final concentration of each specimen in each reaction solution was one fifth of the predetermined concentration. Furthermore, regarding specimens positive for antioxidative activities, similar procedures were performed for BHA so that it is contained in appropriate amounts in reaction solutions. Positive control specimens were thus prepared. A control used herein was prepared by adding 2 ml of 99.5% ethanol and 2 ml of distilled water alone to the reaction solution. Such reaction solution stored in the dark at 40° C. was used for the main test and such reaction solution stored at 4° C. was used for a blank test. Test substances were sampled with time and then measured as described below. Tests were conducted for 2 or more weeks. 0.1 ml of 2×10^2M ferrous chloride (3.5% hydrochloric acid solution) was added to the mixture of 0.1 ml of a test substance, 9.7 ml of 75% ethanol, and 0.1 ml of 30% ammonium rhodanate aqueous solution. At precisely 3 minutes after addition, absorbance was measured at 500 nm. Absorbance was similarly measured in a blank test: Δ absorbance=[absorbance in main test]−[absorbance in blank test]. The higher the absorbance, the higher the amount of oxidized lipids. […] Furthermore, when oxidation of a sample is initiated, the absorbance increases. After the absorbance reaches a peak, the absorbance decreases as the amount of a sample to be oxidized decreases. It can be said that the sooner the absorbance reaches a peak, the weaker the anti-oxidation activity. Furthermore, anti-oxidation activities of the samples were compared in terms of oxidation ratio (%). Oxidation ratio (%) was obtained by the following formula using the oxidation (absorbance) of the control as 100%. Oxidation ratio (%)=([Δ absorbance of sample]/[Δ absorbance of control])×100 [Formula 1] It can be said that the higher the oxidation ratio (%), the lower the anti-oxidation activity.

tyrosinase = test: Effect of inhibiting tyrosinase (skin-whitening activity); assay type: biochemical, mushroom
Experimental: A test concerning activity of inhibiting tyrosinase, which is an enzyme that generates a melanin pigment, was conducted by the following procedure. • (1) *4 mL of an L-DOPA aqueous solution, **4 mL each of samples diluted at different concentrations, and 2 mL of a 0.2 M phosphate buffer (pH 6.8) were mixed. The mixture was heated in a thermostatic bath at 37° C. […] Changes in absorbance were automatically measured for over 20 seconds from the start to the end at intervals of 0.1 second. The rise velocity of absorbance between 4 seconds and 10 seconds after the start of measurement was calculated. *Tyrosinase solution: Solution obtained by dissolving tyrosinase (SIGMA) derived from a mushroom in a 0.2 M phosphate buffer (pH 6.8) at a concentration of 300 units/mL and then conducting filtering using a 0.2 μm filter • (3) To obtain a blank value, measurement was performed using a 0.2 M phosphate buffer instead of a sample and then tyrosinase-inhibiting activity was calculated by the equation below. Furthermore, a substance that could not be dissolved in a phosphate buffer was dissolved in dimethyl sulfoxide (DMSO), diluted with a phosphate buffer, and then measured. […]
Tyrosinase activity inhibition ratio (%)=100−((absorbance rise velocity of sample)/(absorbance rise velocity of blank))×100

[2] = DPPH radical scavenging activity test (Test method 1.2); assay type: biochemical; details: Table 7
Experimental: Antioxidative activities were evaluated using an ethanol solution of diphenyl-p-picrylhydradil (DPPH), which is a stable radical. 1200 μl of ethanol and 400 μl of a specimen (adjusted to any concentration) were mixed with 1600 μl of a 250 mM acetate buffer (pH=5.5), followed by preincubation at 30° C. for 5 minutes. 800 μl of a 500 μM DPPH/ethanol solution was added to the solution and mixed therewith, and the resultant was then allowed to stand at 30° C. for 30 minutes. Absorbance was measured at 517 nm. A similar procedure was performed also for α-tocopherol and then the result was used as a positive control. The control used herein was prepared by performing a similar procedure using a solvent instead of a sample solution. Radical scavenging ratio was calculated by the following equation using the thus measured absorbances.
Scavenging ratio (%)=(1−[absorbance of sample]/[absorbance of control])×100
The above measurement for finding scavenging ratios was performed by varying stepwise the concentration of a sample in a solution. The concentration of a sample solution leading to a 50% DPPH radical scavenging ratio was found and designated the concentration required for scavenging 50% of the DPPH radicals. Thus, it can be said that the lower the numerical value, the higher the radical scavenging ability.

animal cells [3] = details: cited from earlier work
animal cells [4] = details: animal cell test; cited from earlier work
[5] = Experiment 1, 1 day of storage at 40° C.
[6] = Experiment 1, 4 days of storage at 40° C.
[7] = Experiment 1, 5 days of storage at 40° C.
[8] = Experiment 1, 8 days of storage at 40° C.
[9] = Experiment 1, 11 days of storage at 40° C.
[10] = Experiment 1, 15 days of storage at 40° C.

With `O=C1O[C@H]([C@@H](O)CO)C(O)=C1O` [vitamin C, ascorbic acid] the “ΔL value of UV-irradiated skin (pigmentation), FIG. 21, in words” value (brown guinea pigs) was “measurement values were almost the same”, the “Antioxidative activities for lipids (FIG. 15), in words” value ([1]; specimen concentration 0.02% (W/W)) was “no antioxidative activities at all” and the “Antioxidative activities for lipids (FIG. 15), in words” value ([1]; specimen concentration 0.04% (W/W)) was “no antioxidative activities at all”.
For 3(2)-t-Butyl-4-hydroxyanisole [BHA], the “Absorbance, auto-oxidation of linoleic acid” value (from here on “Absorbance, auto-oxidation”) [1, 5] was 0.0000, the “Absorbance, auto-oxidation” value [1, 6] was 0.0105 and the “Absorbance, auto-oxidation” value [1, 7] was 0.0111. For the same molecule, the “Absorbance, auto-oxidation” value [1, 8] was 0.0313, the “Absorbance, auto-oxidation” value [1, 9] was 0.0559 and the “Absorbance, auto-oxidation” value [1, 10] was 0.0752. The “Absorbance, auto-oxidation” value ([1]; Experiment 2, 1 day of storage at 40° C.) was 0.0001, the “Absorbance, auto-oxidation” value ([1]; Experiment 2, 4 days of storage at 40° C.) was 0.0088 and the “Absorbance, auto-oxidation” value ([1]; Experiment 2, 5 days of storage at 40° C.) was 0.0121. The “Absorbance, auto-oxidation” value ([1]; Experiment 2, 8 days of storage at 40° C.) was 0.0269, the “Absorbance, auto-oxidation” value ([1]; Experiment 2, 14 days of storage at 40° C.) was 0.0609 and the “Absorbance, auto-oxidation” value ([1]; Experiment 2, 18 days of storage at 40° C.) was 0.0866.
In the case of `OCC1OC2O[C@@H]3[C@@H](c4ccc(O)c(O)c4)Oc4cc(O)cc(O)c4[C@@H]3OC2C(O)C1O` (stereo partly shown) [Aceronidin], the “skin-whitening effect (effect of inhibiting tyrosinase), in words” value (tyrosinase) is reported as “almost no skin-whitening effect (effect of inhibiting tyrosinase)”, the Tyrosinase-inhibiting activity (tyrosinase; L-DOPA substrate, 37° C., sample concentration not given) is reported as 3.1% and the “50% radical scavenging activity concentration” value [2] is reported as 80 ppm.
For `O=C[C@H](O)[C@@H](O)[C@@H](O)[C@H](O)C(=O)O` [galacturonic acid], the “Effect of suppressing melanin pigment generation” value (animal cells [3]) is listed as “has not been confirmed”.
In the case of oligogalacturonic acid, the “Effect of suppressing melanin production” value (animal cells [4]) is listed as “exerted an effect of suppressing melanin production”.
In the case of (±)-α-Tocopherol, the “Absorbance, auto-oxidation” value [1, 5] is reported as 0.0195, the “Absorbance, auto-oxidation” value [1, 6] is reported as 0.0827 and the “Absorbance, auto-oxidation” value [1, 7] is reported as 0.1014. The “Absorbance, auto-oxidation” value [1, 8] was 0.1326, the “Absorbance, auto-oxidation” value [1, 9] was 0.1551 and the “Absorbance, auto-oxidation” value [1, 10] was 0.1796. The “50% radical scavenging activity concentration” value [2] was 127 ppm.
In the case of polygalacturonic acid, the “Effect of suppressing melanin pigment generation” value (animal cells [3]) is listed as “has not been confirmed”.
